# Measurements reported in ChEMBL document CHEMBL4177599, “The antitubercular activity of various nitro(triazole/imidazole)-based compounds” (Bioorg Med Chem, 2017).
# Columns and labels:
# Assay type in all cases: functional, organism-based
# [1] = system: Mycobacterium tuberculosis; assay: Antitubercular activity against isoniazid-resistant Mycobacterium tuberculosis INH-R2 ATCC 35822 after 5 days; settings: INH-R2 ATCC 35822, 120 h
# [2] = system: Mycobacterium tuberculosis; assay: Antitubercular activity against fluoroquinolone-resistant Mycobacterium tuberculosis H37Rv harboring gyrB D94N mutant after 5 days
# [3] = system: Mycobacterium tuberculosis; assay: Antitubercular activity against rifampicin-resistant Mycobacterium tuberculosis H37Rv RIF-R1 harboring rpoB S522L mutant after 5 days
# [4] = system: Mycobacterium tuberculosis; assay: Antitubercular activity against isoniazid-resistant Mycobacterium tuberculosis H37Rv INH-R1 harboring katG Y155 mutant after 5 days
# [5] = system: Mycobacterium tuberculosis; assay: Antitubercular activity against rifampicin-resistant Mycobacterium tuberculosis H37Rv RIF-R2 ATCC 35828 after 5 days; settings: H37Rv RIF-R2 ATCC 35828, 120 h
compound,measurement,setting,value
O=C(Cn1ccnc1[N+](=O)[O-])Nc1ccc(Oc2ccccc2)cc1,IC50,[1],80 µM
same,IC90,[1],> 200 µM
same,MIC,[1],> 200 µM
same,IC50,[2],74 µM
same,IC90,[2],> 200 µM
same,MIC,[2],>200 µM
same,IC50,[3],84 µM
same,IC90,[3],> 200 µM
same,MIC,[3],>200 µM
same,IC50,[4],75 µM
same,IC90,[4],140 µM
same,MIC,[4],>200 µM
same,IC50,[5],110 µM
same,IC90,[5],> 200 µM
same,MIC,[5],> 200 µM
C[C@H]1COc2c(N3CCN(C)CC3)c(F)cc3c(=O)c(C(=O)O)cn1c23.C[C@H]1COc2c(N3CCN(C)CC3)c(F)cc3c(=O)c(C(=O)O)cn1c23.O [LEVOFLOXACIN],MIC,[1],1.3 µM
same,MIC,[2],14 µM
same,MIC,[3],0.85 µM
same,MIC,[4],1.1 µM
same,MIC,[5],1.4 µM
O=C(Cn1ccnc1[N+](=O)[O-])Nc1ccc(Oc2ccc(F)cc2)cc1,IC50,[1],70 µM
same,IC90,[1],> 100 µM
same,MIC,[1],> 200 µM
same,IC50,[2],75 µM
same,IC90,[2],190 µM
same,MIC,[2],200 µM
same,IC50,[3],46 µM
same,IC90,[3],> 100 µM
same,MIC,[3],>200 µM
same,IC50,[4],65 µM
same,IC90,[4],> 100 µM
same,MIC,[4],>200 µM
same,IC50,[5],78 µM
same,IC90,[5],> 200 µM
same,MIC,[5],> 200 µM
O=C(Cn1cnc([N+](=O)[O-])n1)N1CCN(Cc2ccc(Cl)c(Cl)c2)CC1,IC50,[1],7.3 µM
same,IC90,[1],12 µM
same,MIC,[1],12 µM
same,IC50,[2],7.4 µM
same,IC90,[2],11 µM
same,MIC,[2],12 µM
same,IC50,[3],4.9 µM
same,IC90,[3],8.3 µM
same,MIC,[3],7.7 µM
same,IC50,[4],9 µM
same,IC90,[4],14 µM
same,MIC,[4],14 µM
same,IC50,[5],9.4 µM
same,IC90,[5],12 µM
same,MIC,[5],12 µM
O=C(Cn1cnc([N+](=O)[O-])n1)N1CCN(C(c2ccccc2)c2ccc(Cl)cc2)CC1 (stereo not given),IC50,[1],29 µM
same,IC90,[1],35 µM
same,MIC,[1],45 µM
same,IC50,[2],46 µM
same,IC90,[2],78 µM
same,MIC,[2],72 µM
same,IC50,[3],27 µM
same,IC90,[3],32 µM
same,MIC,[3],42 µM
same,IC50,[4],48 µM
same,IC90,[4],82 µM
same,MIC,[4],79 µM
same,IC50,[5],47 µM
same,IC90,[5],68 µM
same,MIC,[5],71 µM
CO[C@H]1/C=C/O[C@@]2(C)Oc3c(C)c(O)c4c(O)c(c(/C=N/N5CCN(C)CC5)c(O)c4c3C2=O)NC(=O)/C(C)=C\C=C\[C@H](C)[C@H](O)[C@@H](C)[C@@H](O)[C@@H](C)[C@H](OC(C)=O)[C@@H]1C [RIFAMPIN],MIC,[1],0.011 µM
same,MIC,[2],>0.04 µM
same,MIC,[3],7.2 µM
same,MIC,[4],0.012 µM
same,MIC,[5],> 50 µM
O=C(Cn1cnc([N+](=O)[O-])n1)Nc1ccc(Oc2ccccc2)cc1,IC50,[1],66 µM
same,IC90,[1],110 µM
same,MIC,[1],> 200 µM
same,IC50,[2],70 µM
same,IC90,[2],130 µM
same,MIC,[2],200 µM
same,IC50,[3],70 µM
same,IC90,[3],150 µM
same,MIC,[3],133 µM
same,IC50,[4],73 µM
same,IC90,[4],130 µM
same,MIC,[4],125 µM
same,IC50,[5],55 µM
same,IC90,[5],170 µM
same,MIC,[5],116 µM
NNC(=O)c1ccncc1 [ISONIAZID],MIC,[1],> 200 µM
same,MIC,[2],0.35 µM
same,MIC,[3],0.31 µM
same,MIC,[4],>200 µM
same,MIC,[5],0.67 µM
O=C(NCCCCn1cnc([N+](=O)[O-])n1)c1sc2ccccc2c1Cl,MIC,[1],7.3 µM
same,MIC,[2],7.1 µM
same,MIC,[3],7.9 µM
same,MIC,[4],7.5 µM
same,MIC,[5],6.4 µM
O=C(CCn1cnc([N+](=O)[O-])n1)Nc1ccc(Oc2ccc(F)cc2)cc1,IC50,[1],19 µM
same,IC90,[1],37 µM
same,MIC,[1],36 µM
same,IC50,[2],26 µM
same,IC90,[2],48 µM
same,MIC,[2],46 µM
same,IC50,[3],16 µM
same,IC90,[3],23 µM
same,MIC,[3],25 µM
same,IC50,[4],29 µM
same,IC90,[4],65 µM
same,MIC,[4],50 µM
same,IC50,[5],21 µM
same,IC90,[5],53 µM
same,MIC,[5],58 µM
O=C(Cn1cnc([N+](=O)[O-])n1)N1CCN(Cc2ccc(C(F)(F)F)cc2)CC1,IC50,[1],26 µM
same,IC90,[1],32 µM
same,MIC,[1],28 µM
same,IC50,[2],27 µM
same,IC90,[2],31 µM
same,MIC,[2],28 µM
same,IC50,[3],21 µM
same,IC90,[3],32 µM
same,MIC,[3],31 µM
same,IC50,[4],32 µM
same,IC90,[4],44 µM
same,MIC,[4],48 µM
same,IC50,[5],32 µM
same,IC90,[5],41 µM
same,MIC,[5],45 µM
O=C(CCn1cnc([N+](=O)[O-])n1)Nc1ccc(Oc2ccc(Cl)cc2)cc1,IC50,[1],18 µM
same,IC90,[1],32 µM
same,MIC,[1],31 µM
same,IC50,[2],24 µM
same,IC90,[2],42 µM
same,MIC,[2],40 µM
same,IC50,[3],15 µM
same,IC90,[3],22 µM
same,MIC,[3],24 µM
same,IC50,[4],25 µM
same,IC90,[4],53 µM
same,MIC,[4],46 µM
same,IC50,[5],17 µM
same,IC90,[5],30 µM
same,MIC,[5],29 µM
O=C(Cn1cnc([N+](=O)[O-])n1)Nc1cccc(-c2ccccc2)c1,IC50,[1],26 µM
same,IC90,[1],31 µM
same,MIC,[1],28 µM
same,IC50,[2],29 µM
same,IC90,[2],39 µM
same,MIC,[2],28 µM
same,IC50,[3],24 µM
same,IC90,[3],40 µM
same,MIC,[3],35 µM
same,IC50,[4],31 µM
same,IC90,[4],43 µM
same,MIC,[4],48 µM
same,IC50,[5],29 µM
same,IC90,[5],33 µM
same,MIC,[5],33 µM
O=C(Cn1cnc([N+](=O)[O-])n1)Nc1ccc(Oc2ccc(Cl)cc2)cc1,IC50,[1],36 µM
same,IC90,[1],54 µM
same,MIC,[1],55 µM
same,IC50,[2],56 µM
same,IC90,[2],84 µM
same,MIC,[2],94 µM
same,IC50,[3],58 µM
same,IC90,[3],91 µM
same,MIC,[3],98 µM
same,IC50,[4],54 µM
same,IC90,[4],76 µM
same,MIC,[4],91 µM
same,IC50,[5],55 µM
same,IC90,[5],150 µM
same,MIC,[5],100 µM
O=C(CCn1cnc([N+](=O)[O-])n1)Nc1cccc(OCc2ccccc2)c1,IC50,[1],3.2 µM
same,IC90,[1],5.6 µM
same,MIC,[1],5.7 µM
same,IC50,[2],3.4 µM
same,IC90,[2],6.2 µM
same,MIC,[2],6 µM
same,IC50,[3],2.2 µM
same,IC90,[3],3.7 µM
same,MIC,[3],3.6 µM
same,IC50,[4],4.5 µM
same,IC90,[4],5.9 µM
same,MIC,[4],6.2 µM
same,IC50,[5],4.1 µM
same,IC90,[5],5.2 µM
same,MIC,[5],5.6 µM
O=C(Cn1cnc([N+](=O)[O-])n1)Nc1ccc(Cc2ccccc2)cc1,IC50,[1],29 µM
same,IC90,[1],37 µM
same,MIC,[1],31 µM
same,IC50,[2],28 µM
same,IC90,[2],32 µM
same,MIC,[2],30 µM
same,IC50,[3],27 µM
same,IC90,[3],40 µM
same,MIC,[3],44 µM
same,IC50,[4],33 µM
same,IC90,[4],47 µM
same,MIC,[4],50 µM
same,IC50,[5],34 µM
same,IC90,[5],44 µM
same,MIC,[5],48 µM
O=C(Cn1cnc([N+](=O)[O-])n1)Nc1ccc(N2CCCCC2)cc1,IC50,[1],30 µM
same,IC90,[1],44 µM
same,MIC,[1],48 µM
same,IC50,[2],32 µM
same,IC90,[2],47 µM
same,MIC,[2],50 µM
same,IC50,[3],25 µM
same,IC90,[3],41 µM
same,MIC,[3],36 µM
same,IC50,[4],34 µM
same,IC90,[4],53 µM
same,MIC,[4],54 µM
same,IC50,[5],36 µM
same,IC90,[5],49 µM
same,MIC,[5],51 µM
O=C(Cn1cnc([N+](=O)[O-])n1)Nc1nc(-c2ccc(F)c(F)c2)cs1,IC50,[1],31 µM
same,IC90,[1],45 µM
same,MIC,[1],49 µM
same,IC50,[2],31 µM
same,IC90,[2],44 µM
same,MIC,[2],48 µM
same,IC50,[3],25 µM
same,IC90,[3],40 µM
same,MIC,[3],39 µM
same,IC50,[4],32 µM
same,IC90,[4],47 µM
same,MIC,[4],50 µM
same,IC50,[5],30 µM
same,IC90,[5],38 µM
same,MIC,[5],45 µM
O=C(Cn1ccnc1[N+](=O)[O-])Nc1ccc(Oc2ccc(Cl)cc2)cc1,IC50,[1],> 100 µM
same,IC90,[1],> 100 µM
same,MIC,[1],> 200 µM
same,IC50,[2],> 100 µM
same,IC90,[2],> 100 µM
same,MIC,[2],>200 µM
same,IC50,[3],48 µM
same,IC90,[3],> 100 µM
same,MIC,[3],>200 µM
same,IC50,[4],> 100 µM
same,IC90,[4],> 100 µM
same,MIC,[4],>200 µM
same,IC50,[5],56 µM
same,IC90,[5],> 100 µM
same,MIC,[5],> 200 µM
CC(O)(Cn1cnc([N+](=O)[O-])n1)c1ccc(-c2ccc(C#N)cc2)cc1 (stereo not given),MIC,[1],> 200 µM
same,MIC,[2],>200 µM
same,MIC,[3],>200 µM
same,MIC,[4],>200 µM
same,MIC,[5],> 200 µM
O=C(NCCCCn1cnc([N+](=O)[O-])n1)c1nc2ccccc2s1,MIC,[1],7.9 µM
same,MIC,[2],8.2 µM
same,MIC,[3],8.9 µM
same,MIC,[4],11.1 µM
same,MIC,[5],7.9 µM
O=C(CCn1cnc([N+](=O)[O-])n1)Nc1cccc(-c2ccccc2)c1,IC50,[1],6.2 µM
same,IC90,[1],11 µM
same,MIC,[1],10 µM
same,IC50,[2],6.8 µM
same,IC90,[2],14 µM
same,MIC,[2],13 µM
same,IC50,[3],4.1 µM
same,IC90,[3],8 µM
same,MIC,[3],7.7 µM
same,IC50,[4],8.5 µM
same,IC90,[4],15 µM
same,MIC,[4],15 µM
same,IC50,[5],8.1 µM
same,IC90,[5],11 µM
same,MIC,[5],12 µM
O=C(CCn1cnc([N+](=O)[O-])n1)Nc1ccc(Oc2ccccc2)cc1,IC50,[1],26 µM
same,IC90,[1],53 µM
same,MIC,[1],56 µM
same,IC50,[2],32 µM
same,IC90,[2],68 µM
same,MIC,[2],62 µM
same,IC50,[3],28 µM
same,IC90,[3],42 µM
same,MIC,[3],48 µM
same,IC50,[4],38 µM
same,IC90,[4],71 µM
same,MIC,[4],59 µM
same,IC50,[5],29 µM
same,IC90,[5],40 µM
same,MIC,[5],48 µM
